Where “and” joins values, the source holds several entries; their conditions need not be identical. Identical values can stand only once.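 Results reflect a 48-hour exposure of cells in 96-well plates to compound at five concentrations. At the GI50, growth is halved. Definition used: TGI = concentration required for complete inhibition of growth.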

The subject of one assay is SN12C renal. In words: DTP human tumour cell line panel, 48 h.
For `Cc1nn(-c2ccc(F)cc2)c2ncnc(Nc3ccc(NC(=O)Nc4ccc(Cl)c(C(F)(F)F)c4)cc3)c12`, the GI50 was 2.07 µM and the TGI was determined as 5.56 µM.
`Cc1ccn2c3c(c(C(=O)O)c2c1)C(=O)c1ccccc1C3=O`: the GI50 was 7.97 µM and the TGI is over 100 µM.
For `COc1cc2ncn(-c3cc(OCc4ccccc4Cl)c(C(N)=O)s3)c2cc1OC`, the GI50 was 1.48 µM and the TGI is over 25 µM.
`Cc1ccc2c(C(C[N+](=O)[O-])c3cccs3)c(-c3ccccc3)[nH]c2c1` (stereo not drawn): the GI50 is 1.89 µM and the TGI was 7.01 µM.
The compound `CCc1c2c(nc3cc4c(cc13)OCO4)-c1cc3c(c(=O)n1C2)COC(=O)[C@]3(O)CC` yielded a TGI of over 100 µM.
Turning to `C#Cc1cnc(=O)n(C2CC(O)C(CO)O2)c1` (stereo not drawn), the GI50 is over 100 µM and the TGI was over 100 µM.
For the compound `O=C(c1cccs1)c1c(C(F)(F)F)n([O-])c2ccccc2[n+]1=O`, the GI50 is 0.737 µM and the total growth inhibition concentration (TGI) came to 1.67 µM.
Consider `CCN1CCN(c2nc(NCCCNc3ccnc4cc(Cl)ccc34)c3ccccc3n2)CC1`, for which the GI50 is 2.6 µM and the total growth inhibition concentration (TGI) came out at 11.5 µM.
On to `NC(N)=N/N=C(/c1ccccc1)c1ccc(F)cc1`, for which the GI50 is 0.817 µM and the TGI is 22.2 µM.
Take `COc1cc(C(=O)NC2c3ccccc3-c3ccccc32)c(N)cc1OCc1ccccc1`: the GI50 was 11.4 µM and the TGI worked out at 48.9 µM.
On the same counts, the results for `COc1ccc(C(=S)N2CCN(c3cccc(Cl)c3)CC2)cc1` are over 100 µM and over 100 µM.

Another assay has as its system HCC-2998 colon. In words: DTP human tumour cell line panel, 48 h.
With `Cc1nn(-c2ccc(F)cc2)c2ncnc(Nc3ccc(NC(=O)Nc4ccc(Cl)c(C(F)(F)F)c4)cc3)c12`, the GI50 was 2.57 µM and the TGI turned out to be 10.6 µM.
Turning to `Cc1ccn2c3c(c(C(=O)O)c2c1)C(=O)c1ccccc1C3=O`, the GI50 was 4.58 µM and the TGI is over 100 µM.
As to `COc1cc2ncn(-c3cc(OCc4ccccc4Cl)c(C(N)=O)s3)c2cc1OC`, the GI50 is 0.488 µM and the TGI was over 25 µM.
As to `Cc1ccc2c(C(C[N+](=O)[O-])c3cccs3)c(-c3ccccc3)[nH]c2c1` (stereo not drawn), the GI50 is 3.61 µM and the TGI was 8.01 µM.
Turning to `CCc1c2c(nc3cc4c(cc13)OCO4)-c1cc3c(c(=O)n1C2)COC(=O)[C@]3(O)CC`, the GI50 was 0.0443 µM and 0.361 µM; the TGI is over 100 µM.
For the compound `C#Cc1cnc(=O)n(C2CC(O)C(CO)O2)c1` (stereo not drawn), the GI50 is over 100 µM and the TGI was over 100 µM.
For the compound `O=C(c1cccs1)c1c(C(F)(F)F)n([O-])c2ccccc2[n+]1=O`, the GI50 is 0.663 µM and the TGI was 1.3 µM.
Consider `CCN1CCN(c2nc(NCCCNc3ccnc4cc(Cl)ccc34)c3ccccc3n2)CC1`, for which the GI50 was 1.87 µM and the TGI came out at 6.09 µM.
Turning to `NC(N)=N/N=C(/c1ccccc1)c1ccc(F)cc1`, the GI50 is 0.416 µM and the TGI is 2.09 µM.
For the compound `COc1cc(C(=O)NC2c3ccccc3-c3ccccc32)c(N)cc1OCc1ccccc1`, the GI50 is over 100 µM and the TGI was over 100 µM.
With `COc1ccc(C(=S)N2CCN(c3cccc(Cl)c3)CC2)cc1`, the GI50 is over 100 µM and the TGI was over 100 µM.

Another assay has as its system EKVX NSCLC. In words: DTP human tumour cell line panel, 48 h.
With `Cc1nn(-c2ccc(F)cc2)c2ncnc(Nc3ccc(NC(=O)Nc4ccc(Cl)c(C(F)(F)F)c4)cc3)c12`, the GI50 is 2.78 µM and the concentration for total growth inhibition (TGI) is 10.8 µM.
Turning to `Cc1ccn2c3c(c(C(=O)O)c2c1)C(=O)c1ccccc1C3=O`, the GI50 was 48 µM and the TGI was over 100 µM.
Consider `COc1cc2ncn(-c3cc(OCc4ccccc4Cl)c(C(N)=O)s3)c2cc1OC`, for which the GI50 was 1.25 µM and the TGI is over 25 µM.
On to `Cc1ccc2c(C(C[N+](=O)[O-])c3cccs3)c(-c3ccccc3)[nH]c2c1` (stereo not drawn), for which the GI50 was 2 µM and the TGI is 14.9 µM.
Turning to `CCc1c2c(nc3cc4c(cc13)OCO4)-c1cc3c(c(=O)n1C2)COC(=O)[C@]3(O)CC`, the GI50 is 4.31 µM and 1.8 µM; the TGI was over 100 µM.
In the case of `C#Cc1cnc(=O)n(C2CC(O)C(CO)O2)c1` (stereo not drawn), the GI50 is over 100 µM and the TGI was over 100 µM.
Consider `O=C(c1cccs1)c1c(C(F)(F)F)n([O-])c2ccccc2[n+]1=O`, for which the GI50 is 0.798 µM and the TGI amounted to 1.55 µM.
For the compound `CCN1CCN(c2nc(NCCCNc3ccnc4cc(Cl)ccc34)c3ccccc3n2)CC1`, the GI50 is 3.03 µM and the TGI was 14.4 µM.
`NC(N)=N/N=C(/c1ccccc1)c1ccc(F)cc1`: the GI50 was 0.65 µM and the TGI was determined as 36.5 µM.
As to `COc1cc(C(=O)NC2c3ccccc3-c3ccccc32)c(N)cc1OCc1ccccc1`, the GI50 was 5.28 µM and the TGI came to 45 µM.
Take `COc1ccc(C(=S)N2CCN(c3cccc(Cl)c3)CC2)cc1`: the GI50 was 91.7 µM and the TGI is over 100 µM.

For another assay, the system named is 786-0 renal. The assay is described as follows: DTP human tumour cell line panel, 48 h.
As to `Cc1nn(-c2ccc(F)cc2)c2ncnc(Nc3ccc(NC(=O)Nc4ccc(Cl)c(C(F)(F)F)c4)cc3)c12`, the GI50 is 1.98 µM and the TGI amounted to 5.85 µM.
On the same counts, the results for `Cc1ccn2c3c(c(C(=O)O)c2c1)C(=O)c1ccccc1C3=O` are over 87.4 µM and over 100 µM.
`COc1cc2ncn(-c3cc(OCc4ccccc4Cl)c(C(N)=O)s3)c2cc1OC`: the GI50 was 0.873 µM and the concentration for total growth inhibition (TGI) is over 22.8 µM.
Regarding `Cc1ccc2c(C(C[N+](=O)[O-])c3cccs3)c(-c3ccccc3)[nH]c2c1` (stereo not drawn), the GI50 is 2.26 µM and the TGI was found to be 7.89 µM.
`CCc1c2c(nc3cc4c(cc13)OCO4)-c1cc3c(c(=O)n1C2)COC(=O)[C@]3(O)CC` yielded a TGI of over 100 µM.
Consider `C#Cc1cnc(=O)n(C2CC(O)C(CO)O2)c1` (stereo not drawn), for which the GI50 was over 100 µM and the total growth inhibition concentration (TGI) is over 100 µM.
For the compound `O=C(c1cccs1)c1c(C(F)(F)F)n([O-])c2ccccc2[n+]1=O`, the GI50 was 0.521 µM and the TGI was found to be 1.45 µM.
Regarding `CCN1CCN(c2nc(NCCCNc3ccnc4cc(Cl)ccc34)c3ccccc3n2)CC1`, the GI50 was 2.18 µM and the total growth inhibition concentration (TGI) worked out at 5.82 µM.
Turning to `NC(N)=N/N=C(/c1ccccc1)c1ccc(F)cc1`, the GI50 was 0.638 µM and the TGI was 13.9 µM.
With `COc1cc(C(=O)NC2c3ccccc3-c3ccccc32)c(N)cc1OCc1ccccc1`, the GI50 was 21.4 µM and the TGI was over 60.8 µM.
`COc1ccc(C(=S)N2CCN(c3cccc(Cl)c3)CC2)cc1`: the GI50 is over 100 µM and the TGI is over 100 µM.

In the next assay the test system is MDA-MB-231 breast. In words: DTP human tumour cell line panel, 48 h.
As for `Cc1nn(-c2ccc(F)cc2)c2ncnc(Nc3ccc(NC(=O)Nc4ccc(Cl)c(C(F)(F)F)c4)cc3)c12`, the GI50 was 2.03 µM and the TGI amounted to 5.55 µM.
As to `Cc1ccn2c3c(c(C(=O)O)c2c1)C(=O)c1ccccc1C3=O`, the GI50 is 11.8 µM and the concentration for total growth inhibition (TGI) was over 100 µM.
`COc1cc2ncn(-c3cc(OCc4ccccc4Cl)c(C(N)=O)s3)c2cc1OC`: the GI50 is 0.247 µM and the TGI came out at 8.13 µM.
On the same counts, the results for `Cc1ccc2c(C(C[N+](=O)[O-])c3cccs3)c(-c3ccccc3)[nH]c2c1` (stereo not drawn) are 1.65 µM and 6.31 µM.
With `CCc1c2c(nc3cc4c(cc13)OCO4)-c1cc3c(c(=O)n1C2)COC(=O)[C@]3(O)CC`, the 50% growth inhibitory concentration (GI50) was 0.0726 µM and 0.167 µM; the total growth inhibition concentration (TGI) was over 100 µM.
With `C#Cc1cnc(=O)n(C2CC(O)C(CO)O2)c1` (stereo not drawn), the GI50 is over 100 µM and the TGI is over 100 µM.
On to `O=C(c1cccs1)c1c(C(F)(F)F)n([O-])c2ccccc2[n+]1=O`, for which the GI50 is 0.639 µM and the TGI is 1.53 µM.
On the same counts, the results for `CCN1CCN(c2nc(NCCCNc3ccnc4cc(Cl)ccc34)c3ccccc3n2)CC1` are 2.08 µM and 5.14 µM.
The corresponding values for `NC(N)=N/N=C(/c1ccccc1)c1ccc(F)cc1` are 0.649 µM and 14 µM.
With `COc1cc(C(=O)NC2c3ccccc3-c3ccccc32)c(N)cc1OCc1ccccc1`, the GI50 is 17.2 µM and the TGI was determined as 47.1 µM.
Regarding `COc1ccc(C(=S)N2CCN(c3cccc(Cl)c3)CC2)cc1`, the GI50 is 43.9 µM and the TGI is over 100 µM.

Usually GI50 stands for the concentration giving 50% growth inhibition. In general, TGI refers to the concentration at which net growth stops. Higher therefore signals lower sensitivity of the cells.

(Values after PubChem BioAssay (NCI).)
